Results from patent publication US9212206B1, “4-Fluoro-Thio-containing inhibitors of APP2, compositions thereof and method of use” (priority 2014, dated 2015).

Key:
[1] = biological target: Human aminopeptidase P2 (APP2) (Homo sapiens (Human), UniProt O43895); assay: Determination of human APP2 activity (quenched fluorescent substrate); format: biochemical; details: for IC50: purified human kidney APP2, substrate 1 μM (=Km), pH 7.4, 30° C., read-out: Binding affinity (IC50) APP2; for IC50 ratio ACE/APP2: selectivity, ratio of IC50s for ACE/APP2
Description: Human kidney tissue, which was obtained from the Cooperative Human Tissue Network, was the source of purified human APP2 as used herein. APP2 enzyme activity was measured during purification as described in Example 2B below. The membrane-bound APP2 was purified from human kidney tissue using the following steps: 1) kidney tissue was homogenized in 30 volumes of buffer containing Triton X-100 detergent and centrifuged; 2) the pellet was washed and suspended in buffer containing octyl-β-D-glucopyranoside detergent, and then centrifuged; 3) the supernatant was treated with 10 units of phosphatidylinositol-specific phospholipase C (Invitrogen, Eugene, Ga.) to remove the hydrophobic part of the glycosyl-phosphatidylinositol lipid membrane anchor from APP2, and then dialyzed; 4) the dialysate was passed through an octyl-Sepharose chromatography column; 5) the eluent was centrifuged and then concentrated by ultrafiltration in Amicon Ultra-15 Ultracel-10 k filters (Millipore Corp, Billerica, Mass.); 6) the retentate was dialyzed and applied to a HiTrap Q-Sepharose XL ion exchange chromatography column. Human APP2 enzyme activity was eluted with a linear KCl salt gradient.
Human aminopeptidase P2 (APP2) enzyme activity was determined using the internally quenched fluorescent substrate: H-Lys(2-aminobenzoyl)-Pro-Pro-p-nitroanilide (Bachem, Torrance, Calif.) at 1 μM (=Km) for inhibitor studies and 5 μM for enzyme purification assays. The assay buffer was 0.1 M HEPES, pH 7.4, and the assay temperature was 30° C. Cleavage of the substrate by the enzyme produces an increase in fluorescence due to the release of H-Lys(2-aminobenzoyl). Enzyme rates were determined in an F. fluorescence plate reader (Molecular Devices, Sunnyvale, Calif.) using an excitation wavelength of 320 nm and an emission wavelength of 405 nm. The binding affinity of an inhibitor was estimated and expressed as IC50 values (the concentration that inhibits activity by 50%).

[2] = biological target: Human recombinant angiotensin-converting enzyme (hrACE) (Homo sapiens (Human), UniProt P12821); assay: Determination of human ACE activity (quenched fluorescent substrate ES005); format: biochemical; details: for IC50: hrACE, substrate below Km, pH 7.4, 30° C., read-out: Binding affinity (IC50) ACE
Description: Human recombinant angiotensin-converting enzyme (hrACE) was obtained from R&D Systems (Minneapolis, Minn.). Its enzyme activity was determined using the internally quenched fluorescent substrate ES005: (7-methoxycoumarin-4-yl)acetyl-Arg-Pro-Pro-Gly-Phe-Ser-Ala-Phe-(2,4-dinitrophenyl)-Lys (R&D Systems, Minneapolis, Minn.). The assay buffer was 0.1 M HEPES, pH 7.4, and the temperature was 30° C. The substrate concentration was below Km (≦40 μM). Enzyme rates were determined in an Fmax fluorescence plate reader (Molecular Devices, Sunnyvale, Calif.) using an excitation wavelength of 320 nm and an emission wavelength of 405 nm. The binding affinity of an inhibitor was estimated and expressed as IC50 values (the concentration that inhibits activity by 50%).

Male CD-1(ICR) mice = assay: Bilateral renal ischemia/reperfusion in mice; format: in vivo, mouse; details: for reduction of blood urea nitrogen (BUN) compared to saline: i.v. 5 min before reperfusion after 25 min ischemia, BUN after 2 days of reperfusion, apstatin 1.8 mg/kg, ST-115 10 μg/kg; for mice that died before the prespecified 2-day BUN measurement point: saline control 29% died early
Description: Previous studies have shown that the prototype APP2 inhibitor apstatin can greatly reduce ischemia/reperfusion damage in the heart. […] In this study, blood flow to both kidneys of the mouse was blocked for 25 min., producing ischemia. Blood flow was then restored (reperfusion). In order to determine the effects of inhibiting APP2 in this model of kidney damage, apstatin, ST-115, or saline (control) were administered intravenously 5 min. before reperfusion. After two days of reperfusion, blood urea nitrogen (BUN, a marker of kidney dysfunction) was measured. In FIG. 1, data are presented as the mean±standard error of the mean. Each drug was separately compared to the control by the unpaired t-test with Welch's correction. ** Apstatin vs. Saline, p<0.01; *** ST-115 vs. Saline, p<0.001.
Male CD-1(ICR) mice (36-47 g) from Harlan Laboratories (Indianapolis, Ind.) were used. Each mouse was anesthetized by the subcutaneous injection of 50 mg/kg sodium pentobarbital (Akorn Inc, Lake Forest, Ill.) and placed on a 37° C. warmer. For surgery, the abdomen was shaved and the mouse was moved to a warming plate with feedback temperature control (TCAT-2DF, Harvard Apparatus Holliston, Mass.). The body temperature of the mouse was maintained at 36.9±0.1° C. throughout the procedure. The skin of the abdomen was washed with alcohol, and a midline incision was made to expose the kidneys. After removing adipose tissue from the renal pedicles, a microaneurysm clamp was placed on each pedicle to block blood flow to/from both kidneys for 25 min. (referred to as the ischemia phase). At the 20 min. point, 0.15 ml of either saline or saline containing drug (apstatin or ST-115) was administered intravenously through the femoral vein. The doses were 1.8 mg/kg for apstatin and 10 μg/kg for ST-115. At 5 minutes after drug injection, the clamps were removed from the pedicles to restore blood flow to/from the kidneys (the reperfusion phase). After confirming reperfusion, a subcutaneous injection of saline was administered in the upper thigh for rehydration, and the incision was sutured closed. Regulated temperature control was maintained for at least the first 0.5 hours of reperfusion. The mouse was then placed on a 37° C. warmer to recover from the anesthetic and then moved to the home cage. After 2 days of reperfusion, the mouse was sacrificed by exsanguination. The blood was allowed to clot and then centrifuged to obtain serum. The serum was assayed for its concentration of urea (Blood Urea Nitrogen—BUN), a marker of kidney damage, using a kit from Stanbio (Boerne, Tex.). […] The BUN data points (20) were analyzed by comparing the values for each drug with those of the saline control using the unpaired t-test with Welch's correction (Graphpad Prism statistical package, La Jolla, Calif.).

isolated perfused heart = details: ischemia/reperfusion (Ersahin et al. 1999); cited from earlier work

Sequence of Human recombinant angiotensin-converting enzyme (hrACE) (P12821 30-1306): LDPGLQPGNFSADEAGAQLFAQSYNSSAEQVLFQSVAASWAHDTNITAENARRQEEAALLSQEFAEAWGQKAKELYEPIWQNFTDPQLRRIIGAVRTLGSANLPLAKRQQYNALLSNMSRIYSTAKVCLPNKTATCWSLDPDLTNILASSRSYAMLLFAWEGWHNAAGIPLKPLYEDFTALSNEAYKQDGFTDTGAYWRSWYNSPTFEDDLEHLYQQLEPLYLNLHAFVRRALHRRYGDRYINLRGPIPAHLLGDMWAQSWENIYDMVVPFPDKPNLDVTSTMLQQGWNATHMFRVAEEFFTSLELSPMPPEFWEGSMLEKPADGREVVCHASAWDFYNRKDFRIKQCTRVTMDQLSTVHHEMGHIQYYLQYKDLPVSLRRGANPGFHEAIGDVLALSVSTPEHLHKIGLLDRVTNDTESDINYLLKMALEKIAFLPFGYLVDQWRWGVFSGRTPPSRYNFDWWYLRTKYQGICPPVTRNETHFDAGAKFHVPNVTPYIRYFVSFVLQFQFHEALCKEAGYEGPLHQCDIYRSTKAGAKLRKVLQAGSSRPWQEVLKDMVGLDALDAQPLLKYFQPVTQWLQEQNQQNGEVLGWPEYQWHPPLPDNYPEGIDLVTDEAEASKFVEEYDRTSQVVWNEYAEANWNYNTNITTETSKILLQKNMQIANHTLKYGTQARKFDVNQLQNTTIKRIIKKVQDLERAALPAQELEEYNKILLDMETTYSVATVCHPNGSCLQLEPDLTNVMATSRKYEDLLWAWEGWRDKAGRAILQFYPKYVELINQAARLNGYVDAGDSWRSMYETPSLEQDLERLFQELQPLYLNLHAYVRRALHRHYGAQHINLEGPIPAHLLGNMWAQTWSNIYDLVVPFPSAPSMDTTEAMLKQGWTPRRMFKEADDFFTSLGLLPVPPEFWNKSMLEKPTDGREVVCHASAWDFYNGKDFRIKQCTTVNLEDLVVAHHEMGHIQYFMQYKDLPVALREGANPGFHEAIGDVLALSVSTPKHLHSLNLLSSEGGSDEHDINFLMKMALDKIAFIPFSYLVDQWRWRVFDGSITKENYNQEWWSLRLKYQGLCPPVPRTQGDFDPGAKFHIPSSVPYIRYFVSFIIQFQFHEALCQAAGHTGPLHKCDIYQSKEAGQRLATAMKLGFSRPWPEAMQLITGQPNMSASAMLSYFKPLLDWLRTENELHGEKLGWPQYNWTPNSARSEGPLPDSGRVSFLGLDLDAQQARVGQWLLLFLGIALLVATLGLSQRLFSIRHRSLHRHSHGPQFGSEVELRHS
Sequence of Human aminopeptidase P2 (APP2) (O43895 22-674): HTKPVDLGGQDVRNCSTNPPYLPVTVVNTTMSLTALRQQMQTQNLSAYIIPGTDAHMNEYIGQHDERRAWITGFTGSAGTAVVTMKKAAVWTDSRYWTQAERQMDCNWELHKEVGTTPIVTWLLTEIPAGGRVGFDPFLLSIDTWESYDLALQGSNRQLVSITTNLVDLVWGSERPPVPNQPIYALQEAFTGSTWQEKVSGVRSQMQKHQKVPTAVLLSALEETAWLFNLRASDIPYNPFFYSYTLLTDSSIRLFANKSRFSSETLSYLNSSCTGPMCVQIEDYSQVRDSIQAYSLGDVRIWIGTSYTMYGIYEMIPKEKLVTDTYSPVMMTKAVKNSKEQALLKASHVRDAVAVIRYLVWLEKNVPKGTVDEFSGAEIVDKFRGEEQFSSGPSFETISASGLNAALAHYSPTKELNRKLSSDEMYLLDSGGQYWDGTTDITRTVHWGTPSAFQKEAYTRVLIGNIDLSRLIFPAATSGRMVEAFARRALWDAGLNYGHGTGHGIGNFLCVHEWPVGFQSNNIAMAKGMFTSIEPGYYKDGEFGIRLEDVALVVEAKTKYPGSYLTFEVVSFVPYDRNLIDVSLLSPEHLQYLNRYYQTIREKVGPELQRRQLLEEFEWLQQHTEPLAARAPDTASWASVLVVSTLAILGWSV

SMILES | IC50 for human APP2 [1] [nM/L] | IC50 [1] [nM] | IC50 ratio ACE/APP2 [1] | IC50 for human ACE [2] | IC50 [2] [nM] | reduction of blood urea nitrogen (BUN) compared to saline (Male CD-1(ICR) mice) [%] | mice that died before the prespecified 2-day BUN measurement point (Male CD-1(ICR) mice) | reduction of cardiac damage (isolated perfused heart) [%]
CC(C)C[C@H](S)C(=O)N1C[C@@H](F)C[C@H]1C(=O)N1CCC[C@H]1C(=O)N1CC[C@@H](C(=O)O)C1 [Formula III, [(S)-2-mercapto-4-methylpentanoyl]-4(S)-fluoro-Pro-Pro-[(3R)-β-Pro]-OH] | 3.7 | 3.7 | 18,000 | 68,000 nM/L | 68000 | 56 | no apstatin or ST-115 treated mice died early | 
CC(C)C[C@H](S)C(=O)N1CCC[C@H]1C(=O)N1CCC[C@H]1C(=O)N(C)[C@@H](C)C(=O)O [Formula VII] |  | 3.9 | 160 |  | 640 |  |  | 
CC(C)C[C@H](S)C(=O)N1CCC[C@H]1C(=O)N1CCC[C@H]1C(=O)N1CCC[C@@H]1C(=O)O [Formula VI] |  | 9.7 | 1,200 |  | 12000 |  |  | 
CC(C)C[C@H](S)C(=O)N1CCC[C@H]1C(=O)N1CCC[C@H]1C(=O)N1CC[C@H](C(=O)O)C1 [Formula V] |  | 26 | 1,900 |  | 49000 |  |  | 
C[C@H](NC(=O)[C@@H]1CCCN1C(=O)[C@@H]1CCCN1C(=O)[C@@H](O)[C@H](N)Cc1ccccc1)C(N)=O [apstatin] |  |  |  |  |  | 49 | no apstatin or ST-115 treated mice died early | 74
